Measurements as given in patent US20110098492A1, “CLEANING COMPOSITIONS CONTAINING MID-RANGE ALKOXYLATES” (priority 2008, published 2011).

Key:
[1] = Cleaning of cross-linked triglycerides (Gardner scrubber, soiled vinyl tile); parameters: key to Arbitrary Gray Value: mean gray value of tile image (ImageJ); conditions: for Arbitrary Gray Value: 120 back-and-forth strokes, higher = better cleaning; for cleaning of cross-linked triglycerides (in words): aqueous solution, compared with NP-9 / APEs
Protocol: Test panels coated with mixtures of triglycerides and cross-linked triglycerides were prepared and evaluated using the following procedure. Cobalt Naphthenate was used as a catalyst to accelerate the oxidation of vegetable oil to give a hard varnish. Carbon black is added to the varnish to enable easy visual comparison of the ability to clean the cross-linked triglyceride from the surface.
Substrate Panels: White Vinyl Floor Tile: Tarket Corporation Azrock™ VS304-3 (6913) cut to 4¼×4¼ inch (to fit the Gardner Linear Motion Scrubber).
Soil Formulation: 100 grams Canola Oil (Food Grade, 100%, Kroger Co. Cincinnati, Ohio 45202); 2 grams Acetylene Carbon Black (Cat #39724, Alfa Aesar; Surface area=74 sq m/g); 20 grams drying agent: Cobalt Naphthenate Solution (Aldrich Cat #54,457-4, CAS #61789-51-3) (Comes as a 6% solution in petroleum solvent); Oven: Convection oven set at 160° F.
Scrubbing Tester: Gardco washability & Wear Tester; Linear Motion Test Equipment; Model D12-V Cat #WA-2164 (Paul N. Gardner Company, Inc. 316 N.E. First Street, Pompano, Beach, Fla. 33060.
Sponges: “Do-It” Cellulose Sponge, 1⅝ in thick, cut to 3″×4″. Manufactured by Bloch/New England for HWI, Fort Wayne, Ind. 46801;
Paint Brushes: Economy Chip Brush 1 Inch. www.lgsourcing.com Model #0106; Item #103407 obtained from Lowes, Inc. L. G. Sourcing, Inc. P.O. Box 1535 North Wilkseboro, N.C. 28659
Reflectance Meter: HunterLab ColorQuest XE
Prepare a stock solution by mixing 98 grams of canola oil (food grade) with 2.0 g acetylene-based carbon black (Cat #39724, Alfa Aesar; Surface area=74 sq m/g). Mix with a disperser at 2000 rpm for 15 min. (We used a Caframo Model BDC 3030 with a 0.50 dispersing blade).
Add 20.0 grams Cobalt Naphthenate Solution and mix well (by hand, using a glass stir rod).
Place 1.6 grams soil per 4×4 inch tile.
Paint to a thin film using a clean 1-inch economy brush. Use several strokes to get to an even coating. Use a clean, dry brush for each application. (After the application, each brush can be cleaned with acetone, dried, and then re-used).
Place in a convection oven set at 160 F for 16 hours. We place the panels in an oven at 4:00 p.m, and then remove the panels at 8:00 a.m. the next morning. Let the panels cool for 1 hour.
Use the panels within 10 days
Place a panel in the Gardner Scrubber
[…] (We use 5.0 grams surfactant diluted to 500 mL water).
Prepare a sponge by rinsing several times in cold tap water. Completely squeeze out the sponge by hand.
After each test, rinse out the sponge 15-20 times (by repeated sorption and squeezing) until there is no noticeable surfactant solution left (usually indicated by a lack of foam).
Pour 500 mL of surfactant solution into a beaker
Place the sponge into the beaker—allowing it to soak up as much surfactant as possible.
Place the sponge into the Gardner Scrubber.
Pour the remaining liquid (approx 400 mL) over the test panel in the scrubber. There should be enough liquid to just cover the test panel.
Program the scrubber to perform 120 back-and-forth strokes (for a total of 240 linear strokes). We define each back-and-forth stroke as “1 stroke”
Remove the panel rinse with tap water
Clean the Gardner scrubber by rinsing with tap water.
Clean the sponge by squeezing it out under tap water 20-30 times until clean.
Remove excess water from the sponge by squeezing as much liquid out as possible.
After the panel is dry, either take pictures (for visual comparison of cleaning) or measure the reflectance using the Xyy mode of a Hunter Colorimeter. Alternatively, the mean gray value can be obtained by taking a picture of the tiles and processing computer image with ImageJ™ software, which is distributed freely by the National Institute of Health (nih.gov).

Desmondesmus subspicatus = experiment: Fresh water algal growth inhibition test (OECD 201); assay type: cell-based; conditions: growth rate
Description: Organization for Economic Cooperation and Development (OECD): OECD Guidelines for the Testing of Chemicals, “Freshwater Alga and Cyanobacteria, Growth Inhibition Test”, Procedure 201, adopted 23 Mar. 2006; European Economic Community (EEC): […] OECD Guidelines for the Testing of Chemicals, “Freshwater Alga and Cyanobacteria, Growth Inhibition Test”, Procedure 201, adopted 23 Mar. 2006; European Economic Community (EEC): […]

Daphna magna = experiment: 48-hour acute toxicity to Daphnia; assay type: in vivo
Description: The study procedures and test methods were based on the recommendations of the following guidelines: […]

Cloud point = assay type: physicochemical
[2] = Surface tension and critical micelle concentration (Wilhelmy plate); assay type: physicochemical; conditions: for Surface Tension: 0.1 wt % in water; for Critical Micelle Concentration: in de-ionized water
Protocol: B) Surface Tension and Critical Micelle Concentration (CMC) Measurement. For this test the surface tension of a surfactant-water solution is measured while incrementally adding the surfactant to de-ionized water. Results are measured in terms of dyne/centimeters using a Wilhelmy plate. Results are recorded versus surfactant concentration. The Critical Micelle Concentration is the point at which an increase in surfactant concentration no longer results in a change in surface tension.

[3] = Ross-Miles foam height test (ASTM D1173); assay type: physicochemical; conditions: for Ross Miles Foam Height, millimeters, Initial: Initial (0 sec)
Protocol: A) Ross-Miles Foam Height Test: This test is carried out according to the protocol of ASTM […].

Sicklepod = experiment: Greenhouse herbicide adjuvant efficacy with glyphosate; assay type: in vivo; conditions: adjuvant 0.25% v/v in spray, visual injury at 18 DAA
Protocol: Efficacy of Examples 7 and 8 as adjuvants in formulated herbicides is compared to commercially available herbicide packages. Greenhouse field testing is completed. A 480 g ae/L (acid equivalent per liter) formulation of glyphosate isopropylamine with no adjuvants is added to spray vials. These aliquots are diluted to a final volume of 60 ml with tap water, and appropriate amounts of adjuvants are added to the spray solution. The Examples 7 and 8 series are tested at 0.25% v/v in the final spray solution. Treatment rates are: 200, 400, and 600 g ae/ha (“ha” means hectare) and each treatment is replicated three times. Treatments are applied with a tracksprayer. The sprayer utilizes an 8002E spray nozzle, spray pressure of 262 kPa pressure and speed of 2.2 mph to deliver 140 L/Ha. The nozzle height is 46 cm above the pots. Percent visual injury assessments are made at 18 DAA (days after application) on a scale of 0 to 100% as compared to the untreated control plants (where 0 is equal to no injury and 100 is equal to complete death of the plant). Results are shown in Table 10 as % Control of Sicklepod with Glyphosate compared to commercial herbicides.

[4] = Pour point test (ASTM D97); assay type: physicochemical
Protocol: C) Pour Point Test: This test is carried out according to the protocol of ASTM Test D97.

[5] = Gel range in water at 23 C; assay type: physicochemical; parameters: key: L = Liquid; G = Gel; TL = Thick Liquid
Protocol: One way the industry expresses a tendency of a surfactant to cause gels is a “gel range.” A typical gel range describes a percentage of samples that form gels, out of a number of samples, each having increasing surfactant concentration. […] A sample forms a gel when it is non-pourable for at least five seconds at 23° centigrade (° C.) when its container is inverted 180° so the container's open spout or mouth faces down. For many applications, a surfactant ideally has no gel range.
D) Gel range: Ten surfactant solutions are made using 0%, 10%, 20%, 30%, 40%, 50%, 60%, 70%, 80%, 90% water. […] The test is run at 23 C.

[6] = Formula stability with LAS, sodium citrate and water; assay type: physicochemical; parameters: key to Formula stability: S = Stable; U = Unstable
Description: When mixed with dodecyl benzene sulfonic acid (sodium salt), and sodium citrate in water, the surfactants of the present invention show enhanced formula stability relative to conventional surfactants.

C9(BO)1(EO)7 [Example 9]
Arbitrary Gray Value ([1]; 1% by weight in water): 121 | Fresh Water algal growth inhibition test with Desmondesmus subspicatus ErC50/0-3 (Desmondesmus subspicatus): 21 mg/L | 48-hour Acute Toxicity to Daphna magna (EC50-50 hour) (Daphna magna): 6.2 µg/mL | cloud point (Cloud point): 53.9 C

C9(BO)1(EO)6
cloud point (Cloud point): 38.5 C

C9(PO)4(EO)5.5
cloud point (Cloud point): 31.0 C

2EH(PO)2(EO)4 [Example 1]
Surface Tension [2]: 35 dyne/centimeters | Critical Micelle Concentration [2]: 3300 ppm | Ross Miles Foam Height, millimeters, 5 Minutes [3]: 5 millimeters | Ross Miles Foam Height, millimeters, Initial [3]: 110 millimeters

C12-14(EO)5 [reference compound]
Arbitrary Gray Value ([1]; 1% by weight in water): 68

C9(PO)4(EO)8 [Example 10]
Fresh Water algal growth inhibition test with Desmondesmus subspicatus ErC50/0-3 (Desmondesmus subspicatus): 26 mg/L | 48-hour Acute Toxicity to Daphna magna (EC50-50 hour) (Daphna magna): 29.2 µg/mL | cloud point (Cloud point): 55.3 C

2EH(PO)5(EO)6 [Example 7]
Arbitrary Gray Value ([1]; 0.5% by weight in water): 106 | Arbitrary Gray Value ([1]; 1% by weight in water): 179 | cleaning of cross-linked triglycerides (in words) [1]: performs as well as NP-9 | cleaning of cross-linked triglycerides (in words) ([1]; listed as 2EH(PO)5(EO)6): performs as well and NP-9 | % Control of Sicklepod with Glyphosate (Sicklepod; 200 G/ha glyphosate): 66.7% | % Control of Sicklepod with Glyphosate (Sicklepod; 400 G/ha glyphosate): 81.7% | % Control of Sicklepod with Glyphosate (Sicklepod; 600 G/ha glyphosate): 98.3%

C9(PO)4(EO)6.8
cloud point (Cloud point): 43.0 C

2EH(PO)9(EO)9 [Example 4]
Pour Point [4]: 37 ° F. | Gel Range, Percent Surfactant in Water at 23 C. ([5]; 10% surfactant in water): L | Gel Range, Percent Surfactant in Water at 23 C. ([5]; 20% surfactant in water): L | Gel Range, Percent Surfactant in Water at 23 C. ([5]; 30% surfactant in water): L | Gel Range, Percent Surfactant in Water at 23 C. ([5]; 40% surfactant in water): TL | Gel Range, Percent Surfactant in Water at 23 C. ([5]; 50% surfactant in water): G | Gel Range, Percent Surfactant in Water at 23 C. ([5]; 60% surfactant in water): G | Gel Range, Percent Surfactant in Water at 23 C. ([5]; 70% surfactant in water): G | Gel Range, Percent Surfactant in Water at 23 C. ([5]; 80% surfactant in water): G | Gel Range, Percent Surfactant in Water at 23 C. ([5]; 90% surfactant in water): L | Surface Tension [2]: 30 dyne/centimeters | Critical Micelle Concentration [2]: 400 ppm | Ross Miles Foam Height, millimeters, 5 Minutes [3]: 5 millimeters | Ross Miles Foam Height, millimeters, Initial [3]: 50 millimeters

2EH(PO)5(EO)9 [Example 8]
Arbitrary Gray Value ([1]; 1% by weight in water): 128 | Fresh Water algal growth inhibition test with Desmondesmus subspicatus ErC50/0-3 (Desmondesmus subspicatus): 97.7 mg/L | 48-hour Acute Toxicity to Daphna magna (EC50-50 hour) (Daphna magna): >100 µg/mL | % Control of Sicklepod with Glyphosate (Sicklepod; 200 G/ha glyphosate): 31.7% | % Control of Sicklepod with Glyphosate (Sicklepod; 400 G/ha glyphosate): 73.3% | % Control of Sicklepod with Glyphosate (Sicklepod; 600 G/ha glyphosate): 75.0%

2EH(PO)5(EO)3 [Example 6]
Fresh Water algal growth inhibition test with Desmondesmus subspicatus ErC50/0-3 (Desmondesmus subspicatus): 31.9 mg/L | 48-hour Acute Toxicity to Daphna magna (EC50-50 hour) (Daphna magna): 33.6 µg/mL

2EH(PO)11(EO)11 [Example 5]
Formula stability ([6]; 15% LAS/0% Na Cit in water): S | Formula stability ([6]; 15% LAS/1% Na Cit in water): S | Formula stability ([6]; 15% LAS/2% Na Cit in water): S | Formula stability ([6]; 15% LAS/4% Na Cit in water): U | formula stability (in words) ([6]; cleaning formulations, without hydrotrope): stable | Pour Point [4]: 36 ° F. | Gel Range, Percent Surfactant in Water at 23 C. ([5]; 10% surfactant in water): L | Gel Range, Percent Surfactant in Water at 23 C. ([5]; 20% surfactant in water): L | Gel Range, Percent Surfactant in Water at 23 C. ([5]; 30% surfactant in water): L | Gel Range, Percent Surfactant in Water at 23 C. ([5]; 40% surfactant in water): G | Gel Range, Percent Surfactant in Water at 23 C. ([5]; 50% surfactant in water): G | Gel Range, Percent Surfactant in Water at 23 C. ([5]; 60% surfactant in water): G | Gel Range, Percent Surfactant in Water at 23 C. ([5]; 70% surfactant in water): G | Gel Range, Percent Surfactant in Water at 23 C. ([5]; 80% surfactant in water): G | Gel Range, Percent Surfactant in Water at 23 C. ([5]; 90% surfactant in water): L | Surface Tension [2]: 30 dyne/centimeters | Critical Micelle Concentration [2]: 300 ppm | Ross Miles Foam Height, millimeters, 5 Minutes [3]: 15 millimeters | Ross Miles Foam Height, millimeters, Initial [3]: 75 millimeters

C9(BO)1(EO)5
cloud point (Cloud point): 21.4 C

C8-16(PO)2.5(EO)5 [reference compound]
Arbitrary Gray Value ([1]; 0.5% by weight in water): 48

2EH(PO)3(EO)6.8 [Example 2]
Pour Point [4]: 50 ° F. | Gel Range, Percent Surfactant in Water at 23 C. ([5]; 10% surfactant in water): L | Gel Range, Percent Surfactant in Water at 23 C. ([5]; 20% surfactant in water): L | Gel Range, Percent Surfactant in Water at 23 C. ([5]; 30% surfactant in water): L | Gel Range, Percent Surfactant in Water at 23 C. ([5]; 40% surfactant in water): L | Gel Range, Percent Surfactant in Water at 23 C. ([5]; 50% surfactant in water): L | Gel Range, Percent Surfactant in Water at 23 C. ([5]; 60% surfactant in water): L | Gel Range, Percent Surfactant in Water at 23 C. ([5]; 70% surfactant in water): L | Gel Range, Percent Surfactant in Water at 23 C. ([5]; 80% surfactant in water): L | Gel Range, Percent Surfactant in Water at 23 C. ([5]; 90% surfactant in water): L | Surface Tension [2]: 32 dyne/centimeters | Critical Micelle Concentration [2]: 2400 ppm | Ross Miles Foam Height, millimeters, 5 Minutes [3]: 5 millimeters | Ross Miles Foam Height, millimeters, Initial [3]: 115 millimeters
